In US9738614B2, “Malignant and non-malignant disease treatment with Ras antagonists” (PISCES THERAPEUTICS, LLC, priority 2011, dated 2017):
Read-outs that look alike come from different tables or passages of the source.

Columns and labels:
MCF-7 cells = experiment: IC50 assay with MCF-7 breast cancer cells; type: cell-based; conditions: Homo sapiens, MCF7, 0.6 to 10 μM, read-out: half-maximal decrease in viability
Experimental: (§1) U87MG cells were seeded in a 24-well plate, 5000 cells per well, and incubated overnight at 37° C. in serum-free media. The next day they were treated in triplicate with 50 and 100 μM of each test compound (1), (2), (3), (4), and (5) and the reference compound FTS. After five days, the cells were trypsinized (0.5%), stained with trypan blue, and counted to determine the cell number per well. The half-maximal inhibitory concentration (IC50) values were calculated using Multiplex Reader-Fit software made by MiraiBio Group, Hitachi Solutions America, Ltd. In a typical experiment, the control wells averaged 138,000 cells. The results are presented graphically in FIG. 1. The test compounds at 50 μM allowed the following U87MG cell proliferation compared to control: compound (1)—37%, compound (2)—18%, compound (3)—10%, compound (4)—40%, and compound (5)—0%. The reference compound FTS at 50 μM allowed 7% cell proliferation compared to control.
MCF-7 breast cancer cells, which harbor an activating “K-Ras variant” mutation, were subjected to an IC50 assay similar to Example 6 above. This “K-Ras variant” mutation is in a site that a microRNA binds to, destabilizing the mRNA that encodes Ras. […] MCF-7 cells were grown in concentrations of compound (5) ranging from 0.6 to 10 μM.

NF-1+/- mast cells = experiment: NF-1+/- mast cell proliferation (3H-thymidine incorporation); type: cell-based; conditions: 0-12.5 μM, 24 hours after SCF stimulation (FIG. 4B)
Experimental: (§2) Purified populations of NF-1+/−mast cells were stimulated with a maximum stimulating concentration of stem cell factor (SCF) in the presence of a control or compound (5) at concentrations of 10-15 μM. The activated, GTP-bound form of Ras (Ras-GTP) was measured 3 minutes subsequently using Western blot analysis. […] In parallel experiments, mast cell proliferation was measured using 3H-thymidine incorporation 24 hours after SCF stimulation in the presence of a control or compound (5) at concentrations of 0-12.5 μM. […] Each asterisk in FIG. 4B represents a statistical difference relative to the control using analysis of variance. (Yang, Feng-Chun, et. al. J Clin Invest 2003, 112(12), 1851-1861; Yang, Feng-Chun, et. al. Hum Mol Genet 2006, 15(11), 1921-1930).

ST88-14 cells [1] = experiment: ST88-14 MPNST flank tumors in nude mice; type: in vivo, mouse; conditions: 5 mg/kg or 10 mg/kg intraperitoneally once a day
Experimental: ST88-14 cells were injected into the flanks of nude mice and tumors were allowed to grow. When their lengths and widths could readily be determined by palpation, the animals were treated with compound (5) at doses of 5 mg/kg or 10 mg/kg intraperitoneally once a day or vehicle. Tumor dimensions were determined over the course of a 35 day treatment period at the end of which the animals were killed. At this point the tumors were removed and weighed.

sNFO2.2 cells = experiment: IC50 assay with sNFO2.2 MPNST cells; type: cell-based; conditions: Homo sapiens, 0.5 to 20 μM, read-out: half-maximal effect on viability
Experimental: as §1
Two additional MPNST cell lines, sNF94.3 and sNFO2.2, were subjected to IC50 assays similar to Examples 6 and 11 above. Like the ST88-14 cells from Example 11, the sNF94.3 and sNFO2.2 cells came from NF-1 patients too.

JW19 cells = experiment: IC50 assay with JW19 mouse MPNST cells; type: cell-based; conditions: 0.5 to 20 μM, read-out: half-maximal effect on viability
Experimental: as §1
Mouse models of NF-1 related MPNST have been made. Cells from two such mice, JW16 and JW19, have been isolated and propagated. The JW16 and JW19 cells were subjected to IC50 assays similar to Example 6 above.

EJ cells = experiment: IC50 assay with EJ bladder cancer cells; type: cell-based; conditions: Homo sapiens, 1.5 to 25 μM, read-out: half-maximal inhibition of viability
Experimental: as §1
EJ bladder cancer cells, which harbor a H-Ras mutation, were subjected to an IC50 assay similar to Example 6 above. EJ cells were grown in concentrations of compound (5) ranging from 1.5 to 25 μM.

GBM6 cells = experiment: IC50 assay with GBM6 glioblastoma cells; type: cell-based; conditions: Homo sapiens, 1 to 5 μM, read-out: half-maximal effect on cell viability
Experimental: as §1
An IC50 assay similar to Example 6 above was performed with GBM6 cells prepared from minced, freshly harvested tumor tissue. GBM6 cells were grown in the presence of compound (5) at concentrations ranging from 1 to 5 μM.

USPC1 cells = experiment: IC50 assay with USPC1 endometrial cancer cells; type: cell-based; conditions: 1 to 50 μM, read-out: half-maximal inhibition of viability
Experimental: as §1
ECC1 (well differentiated) and USPC1 (poorly differentiated) endometrial cancer cells were subjected to IC50 assays similar to Example 6 above. The cells were grown in concentrations of compound (5) ranging from 1 to 50 μM.

[2] = test system: activated, GTP-bound form of Ras (Ras-GTP); experiment: Ras-GTP Western blot in SCF-stimulated NF-1+/- mast cells; type: cell-based; conditions: 10-15 μM, 3 minutes after SCF stimulation (FIG. 4A)
Experimental: as §2

ST88-14 cells [3] = experiment: IC50 assay with ST88-14 MPNST cells; type: cell-based, human; conditions: 0.1 to 50 μM, two separate experiments, read-out: half-maximal effects on cell viability
Experimental: as §1
IC50 assays similar to Example 6 above were performed with ST88-14 cells derived from a MPNST removed from a patient who had NF-1. The cells have loss-of-function mutations in both copies of the NF-1 gene, neurofibromin, which is discussed further above. ST88-14 cells were grown in concentrations of compound (5) ranging from 0.1 to 50 μM in two separate experiments. […]

Q: With `CC(C)=CCC/C(C)=C/CC/C(C)=C/CSc1ccccc1C1=NCCN1` [compound (5), 2-(2-{[(2E,6E)-3,7,11-trimethyldodeca-2,6,10-trien-1-yl]sulfanyl}phenyl)-4,5-dihydro-1H-imidazole] as the molecule, how does the IC50 (MCF-7 cells) read?
A: 2 µM

Q: And the “mast cell proliferation relative to the control” value (NF-1+/- mast cells)?
A: reduced

Q: And the tumor size (ST88-14 cells [1]; 35 day treatment)?
A: dose dependent decrease

Q: And the tumor weight (ST88-14 cells [1]; end of 35 day treatment)?
A: dose dependent decrease

Q: And the IC50 (sNFO2.2 cells)?
A: 2.9 µM

Q: And the IC50 (JW19 cells)?
A: 4 µM

Q: And the IC50 (EJ cells)?
A: 2.5 µM

Q: What about the IC50 (GBM6 cells) of the same molecule?
A: 3.5 µM

Q: What about the IC50 (USPC1 cells) of the same molecule?
A: 2 µM

Q: And the “level of Ras-GTP relative to the control” value [2]?
A: significantly reduced

Q: And the IC50 (ST88-14 cells [3]; Homo sapiens, ST88-14, ST88-14 cells)?
A: 5.5 µM

Q: And the IC50 (ST88-14 cells [3]; ST88-14 cells)?
A: 6.6 µM
